Where “and” joins values, the source holds several entries; their conditions need not be identical. Equal values may be shown once.
Key:
Assay type in all cases: cell-based, human
TAS2R41 = assay: RT-qPCR gene expression of TAS2R41 in HGT-1 cells; details: VAPFPEVF 17.5 µM, YFYPEL 0.03 µM, YQEPVLGPVRGPFPIIV 0.4 µM, normalized to PPIA and GAPDH and untreated cells, mean, n = 3–5
Protocol: (§1) For mRNA expression analysis, 800,000 cells were seeded in a T25 cell culture flask (25 cm^2) 1 day before the experiment. After incubation with 17.5 μM […], 0.03 μM YFYPEL, or 0.4 μM […] for 15, 30, 60, and 120 min, RNA was isolated using the peqGOLD RNA Kit (VWR Peqlab, USA) following the manufacturer’s protocol. Determination of RNA concentration (A260/A280 between 2.03 and 2.09) was performed on a NanoDrop One^c (Thermo Fisher Scientific Inc., USA). RNA integrity number (RIN 9.9–10.0, version 2.6, assay class Eukaryote Total RNA Nano) was analyzed using a 2100 Bioanalyzer (Agilent Technologies, USA). Removal of gDNA and synthesis of cDNA were performed using the iScript gDNA Clear cDNA Synthesis Kit (BioRad, Feldkirchen, Germany) following the manufacturer’s protocol. Real-time-qPCR (RT-qPCR) was performed with 50 ng cDNA amplified with SsoAdvanced Universal SYBR Green Supermix (Bio-Rad Laboratories, Inc., USA). The sequences of the forward and reverse primers of the 25 TAS2Rs were taken from Liszt et al.([13]) (Supporting Information Table-SI 3). Verified primers for the TAS1Rs (TAS1R1: qHsaCID0013443; TAS1R2: qHsaCID0016106; TAS1R3: qHsaCED0002321) and for MAPK1 (qHsaCEP0050000) were obtained from Bio-Rad Laboratories. PPIA[37] and GAPDH[38] were used as reference genes. The effects of the peptides on gene expression were analyzed in comparison to untreated control cells.

TAS2R4 = assay: RT-qPCR gene expression of TAS2R4 in HGT-1 cells; details: VAPFPEVF 17.5 µM, YFYPEL 0.03 µM, YQEPVLGPVRGPFPIIV 0.4 µM, normalized to PPIA and GAPDH and untreated cells, mean, n = 3–5
Protocol: as §1

TAS2R38 = assay: Proton secretion assay in TAS2R38 knock-down vs mock-transfected HGT-1 cells; details: TAS2R38kd vs mock-transfected HGT-1 cells, VAPFPEVF 17.5 µM, YFYPEL 0.03 µM, YQEPVLGPVRGPFPIIV 0.4 µM, 10 min, mean ± SEM; for reduction of the peptide-induced stimulation of proton secretion in TAS2R38kd cells: 72 h after 1 nM siRNA; for change of peptide-induced proton secretion, TAS2R38kd (in Figure 5E–G): negative = reduction
Protocol: The measurement of proton secretion from HGT-1 cells represents a well-established model for the identification of bitter compounds. By affecting extraoral bitter taste receptors with bitter compounds, a modulatory effect on proton secretion can be measured. For this purpose, cells were washed with KRHB and incubated with 3 μM of the intracellular pH indicator 1,5 carboxy-seminaphto-rhodafluor acetoxymethyl ester (SNARF-1-AM) under standard conditions. After 30 min, the cells were washed again with KRHB and then incubated with casein (0.01–10 μM equimolar related to the relevant forms αS1- and β-casein), hydrolysate (0.01–10 μM), or the peptides (0.01–200 μM). […] All substances were dissolved and diluted in KRHB. 1 mM histamine was used as a positive control. Measurements were performed using FlexStation 3 (Molecular Devices, USA). The excitation wavelength was 488 nm, and the emission wavelengths were 580 and 640 nm. For calibration (pH range 7.0–8.0), the intracellular and extracellular pH was adjusted with 2 μM nigericin in potassium buffer (20 mM NaCl, 110 mM KCl, 1 mM CaCl2, 1 mM MgSO4, 18 mM D-glucose, and 20 mM HEPES). The intracellular proton index (IPX) was calculated as the log2 value of the 580/640 ratio and compared with cells without treatment. Negative values represent increased secretion of protons and therefore stimulation of mechanisms regulating gastric acid secretion in HGT-1 cells. In contrast, positive values represent an inhibition of secretion compared to the untreated control.
Expression of TAS2R16 and TAS2R38 was reduced by treatment of HGT-1 cells with siRNA. 100,000 cells per well were seeded 1 day before the experiment into a 24-well plate. All reagents and siRNA were purchased from Thermo Fisher Scientific, USA (cytotoxicity was excluded by MTT). Transfection was performed with Lipofectamine RNAiMAX in Opti-Medium according to the manufacturer’s protocol. 1–50 nM of different siRNA sequences (HSS121396 and HSS181763 for TAS2R16 and HSS108754 and HSS108756 for TAS2R38) and three different incubation times (24, 48, and 72 h) were tested. Mock control experiments were performed analogously with 1 or 10 nM Stealth RNAi siRNA negative control. To verify the functionality of the transfection process, verified 10 nM siRNA targeting MAPK1 (VHS40312) was used (positive control). The transfection rate was checked by qPCR as described in section 2.11. For the proton secretion assays, 20,000 cells per well were seeded 1 day before transfection into a black 96-well plate. After 72 h of transfection, proton secretion activities of TAS2R16 knock-down or TAS2R38 knock-down HGT-1 were compared with the mock transfected cells by means of ΔIPX.

TAS2R40 = assay: RT-qPCR gene expression of TAS2R40 in HGT-1 cells; details: VAPFPEVF 17.5 µM, YFYPEL 0.03 µM, YQEPVLGPVRGPFPIIV 0.4 µM, normalized to PPIA and GAPDH and untreated cells, mean, n = 3–5
Protocol: as §1

TAS2R8 = assay: RT-qPCR gene expression of TAS2R8 in HGT-1 cells; details: VAPFPEVF 17.5 µM, YFYPEL 0.03 µM, YQEPVLGPVRGPFPIIV 0.4 µM, normalized to PPIA and GAPDH and untreated cells, mean, n = 3–5
Protocol: as §1

TAS1R3 = assay: RT-qPCR gene expression of TAS1R3 in HGT-1 cells
Protocol: as §1

TAS1R1 = assay: RT-qPCR gene expression of TAS1R1 in HGT-1 cells
Protocol: as §1

TAS2R19 = assay: RT-qPCR gene expression of TAS2R19 in HGT-1 cells; details: VAPFPEVF 17.5 µM, YFYPEL 0.03 µM, YQEPVLGPVRGPFPIIV 0.4 µM, normalized to PPIA and GAPDH and untreated cells, mean, n = 3–5
Protocol: as §1

TAS2R14 = assay: RT-qPCR gene expression of TAS2R14 in HGT-1 cells; details: VAPFPEVF 17.5 µM, YFYPEL 0.03 µM, YQEPVLGPVRGPFPIIV 0.4 µM, normalized to PPIA and GAPDH and untreated cells, mean, n = 3–5
Protocol: as §1

TAS2R7 = assay: RT-qPCR gene expression of TAS2R7 in HGT-1 cells; details: VAPFPEVF 17.5 µM, YFYPEL 0.03 µM, YQEPVLGPVRGPFPIIV 0.4 µM, normalized to PPIA and GAPDH and untreated cells, mean, n = 3–5
Protocol: as §1

[1] = 15/30/60/120 min, VAPFPEVF 17.5 µM, YQEPVLGPVRGPFPIIV 0.4 µM, n = 3

Substance	change in gene expression of TAS2R41 (TAS2R41; incubation 15 min) [fold change]	change in gene expression of TAS2R41 (TAS2R41; incubation 30 min) [fold change]	change in gene expression of TAS2R41 (TAS2R41; incubation 60 min) [fold change]	change in gene expression of TAS2R41 (TAS2R41; incubation 120 min)	change in gene expression of TAS2R4 (TAS2R4; incubation 15 min) [fold change]	change in gene expression of TAS2R4 (TAS2R4; incubation 30 min) [fold change]	change in gene expression of TAS2R4 (TAS2R4; incubation 60 min) [fold change]	change in gene expression of TAS2R4 (TAS2R4; incubation 120 min) [fold change]	reduction of the peptide-induced stimulation of proton secretion in TAS2R38kd cells (TAS2R38) [%]	change of peptide-induced proton secretion, TAS2R38kd (in Figure 5E–G) (TAS2R38) [%]	change in gene expression of TAS2R40 (TAS2R40; incubation 15 min) [fold change]	change in gene expression of TAS2R40 (TAS2R40; incubation 30 min) [fold change]	change in gene expression of TAS2R40 (TAS2R40; incubation 60 min) [fold change]	change in gene expression of TAS2R40 (TAS2R40; incubation 120 min) [fold change]	change in gene expression of TAS2R8 (TAS2R8; incubation 15 min) [fold change]	change in gene expression of TAS2R8 (TAS2R8; incubation 30 min) [fold change]	change in gene expression of TAS2R8 (TAS2R8; incubation 60 min) [fold change]	change in gene expression of TAS2R8 (TAS2R8; incubation 120 min) [fold change]	change in gene expression of TAS2R19 (TAS2R19; incubation 15 min) [fold change]	change in gene expression of TAS2R19 (TAS2R19; incubation 30 min) [fold change]	other results
YFYPEL [bitter casein peptide αS1-CN144–149]	2.82	1.56	4.58	3.00 fold change	1.24	0.81	0.92	1.13	62.8 ± 7.0	-62.8 ±7.0	1.90	0.82	0.59	0.75	1.62	1.90	1.87	1.69	1.60	0.82	change in expression of TAS1R3 (TAS1R3; 0.03 µM YFYPEL, 15 min, p < 0.0001): significant increase; change in expression of TAS1R1 (TAS1R1; 0.03 µM YFYPEL, 30 min, p < 0.001): decrease; change in gene expression of TAS2R19 (TAS2R19; incubation 60 min): 0.79 fold change; change in gene expression of TAS2R19 (TAS2R19; incubation 120 min): 1.05 fold change; change in gene expression of TAS2R14 (TAS2R14; incubation 15 min): 1.11 fold change; change in gene expression of TAS2R14 (TAS2R14; incubation 30 min): 0.92 fold change; change in gene expression of TAS2R14 (TAS2R14; incubation 60 min): 0.99 fold change; change in gene expression of TAS2R14 (TAS2R14; incubation 120 min): 1.21 fold change; change in gene expression of TAS2R7 (TAS2R7; incubation 15 min): 1.23 fold change; change in gene expression of TAS2R7 (TAS2R7; incubation 30 min): 2.50 fold change; change in gene expression of TAS2R7 (TAS2R7; incubation 60 min): 6.71 fold change and 6.71 ± 1.56 fold change; change in gene expression of TAS2R7 (TAS2R7; incubation 120 min): 1.18 fold change
YQEPVLGPVRGPFPIIV [bitter casein peptide βA1/A2-CN193–209]	1.31	1.71	2.95	4.61 fold change and 4.61 ± 2.03 fold change	0.79	1.71	1.60	1.21	45.2 ± 6.7	-45.2 ±6.7	0.92	1.78	0.96	0.86	1.39	2.45	1.87	1.93	0.85	1.58	change in expression of TAS1R3 (TAS1R3; [1]): no significant effect; change in expression of TAS1R1 (TAS1R1; [1]): no significant effect; change in gene expression of TAS2R19 (TAS2R19; incubation 60 min): 1.27 fold change; change in gene expression of TAS2R19 (TAS2R19; incubation 120 min): 1.05 fold change; change in gene expression of TAS2R14 (TAS2R14; incubation 15 min): 0.85 fold change; change in gene expression of TAS2R14 (TAS2R14; incubation 30 min): 1.08 fold change; change in gene expression of TAS2R14 (TAS2R14; incubation 60 min): 1.03 fold change; change in gene expression of TAS2R14 (TAS2R14; incubation 120 min): 1.08 fold change; change in gene expression of TAS2R7 (TAS2R7; incubation 15 min): 0.49 fold change; change in gene expression of TAS2R7 (TAS2R7; incubation 30 min): 0.74 fold change; change in gene expression of TAS2R7 (TAS2R7; incubation 60 min): 0.70 fold change; change in gene expression of TAS2R7 (TAS2R7; incubation 120 min): 1.82 fold change
